These results are taken from ChEMBL document CHEMBL6109099, “Design, synthesis and biological evaluation of novel hydroxamic acid-derived histone deacetylase inhibitors bearing a 2-oxoindoline scaffold as potential antitumor agents” (Bioorg Med Chem, 2025).

Structures are written as SMILES. Structures can show the parent of a compound that is named as a salt. Calls of active or inactive are those of the source. The rule behind the calls is not given here.

The target of one data set is Histone deacetylase. Kind of data set: Inhibition of HDAC in human HeLa cells nuclear extract. It counts as subcellular, Nucleus.
Data set [1] is described as follows: Cytotoxicity against human MRC5 cells assessed as reduction in cell viability by SRB assay.
The next data set has as its system HCT-116. The experiment in a line: Cytotoxicity against human HCT-116 cells assessed as reduction in cell viability by SRB assay. In kind it is functional, cell-based. (Sulforhodamine B stains cellular protein and so reports cell mass.)
For data set [2], the system named is SW-620. Kind of data set: Cytotoxicity against human SW620 cells assessed as reduction in cell viability by SRB assay. In kind it is functional, cell-based.
Data set [3] has as its system SW-620. Kind of data set: Induction of morphological changes in human SW620 cells assessed as cell clumping at 5 uM measured after 24 hrs. It counts as functional, cell-based.
Data set [4] concerns SW-620. Kind of data set: Induction of apoptosis in human SW620 cells assessed as necrotic cells at 5 uM measured after 24 hrs by Annexin V-APC/propidium iodide staining based flow cytometry (reference value: 0.2 to 0.42%). In kind it is functional. Background: Flow cytometry measures light scatter and fluorescence of single cells or particles in a stream.
The subject of data set [5] is SW-620. Kind of data set: Induction of morphological changes in human SW620 cells assessed as altered membrane fluidity at 5 uM measured after 24 hrs. In kind it is functional, cell-based.
Data set [6] has as its system SW-620. The experiment in a line: Induction of morphological changes in human SW620 cells assessed as water extrusion at 5 uM measured after 24 hrs. It counts as functional, cell-based.
The test system of data set [7] is SW-620. The experiment in a line: Induction of morphological changes in human SW620 cells assessed as reduction in cell size at 5 uM measured after 24 hrs. In kind it is functional, cell-based.
For data set [8], the system named is SW-620. Kind of data set: Induction of morphological changes in human SW620 cells assessed as cytoplasmic condensation at 5 uM measured after 24 hrs. It counts as functional, cell-based.
Data set [9] has as its system SW-620. The experiment in a line: Induction of morphological changes in human SW620 cells assessed as altered membrane permeability at 5 uM measured after 24 hrs. It counts as functional, cell-based.
Data set [10] relates to SW-620. Kind of data set: Induction of morphological changes in human SW620 cells assessed as cell shrinkage at 5 uM measured after 24 hrs. It counts as functional, cell-based.
Data set [11] has as its system SW-620. The experiment in a line: Induction of apoptosis in human SW620 cells assessed as late apoptotic cells at 5 uM measured after 24 hrs by Annexin V-APC/propidium iodide staining based flow cytometry (reference value: 3.47 to 4.55%). In kind it is functional.
The subject of data set [12] is SW-620. The experiment in a line: Induction of morphological changes in human SW620 cells assessed as increase in granularity at 5 uM measured after 24 hrs. In kind it is functional, cell-based.
The test system of data set [13] is SW-620. The experiment in a line: Induction of morphological changes in human SW620 cells assessed as cell rounding at 5 uM measured after 24 hrs. In kind it is functional, cell-based.
Data set [14] relates to SW-620. The experiment in a line: Cell cycle arrest in human SW620 cells assessed as accumulation of cells at G0/G1-phase at 5 uM measured after 24 hrs by propidium iodide staining based flow cytometry (reference value: 52.39 to 55.88%). It counts as functional.
Data set [15] relates to SW-620. The experiment in a line: Induction of apoptosis in human SW620 cells assessed as early apoptotic cells at 5 uM measured after 24 hrs by Annexin V-APC/propidium iodide staining based flow cytometry (reference value: 7.13 to 9.13%). In kind it is functional.
Data set [16] has as its system SW-620. The experiment in a line: Cell cycle arrest in human SW620 cells assessed as accumulation of cells at G2/M-phase at 5 uM measured after 24 hrs by propidium iodide staining based flow cytometry (reference value: 27.55 to 31.23%). It counts as functional.
For data set [17], the system named is SW-620. The experiment in a line: Induction of morphological changes in human SW620 cells assessed as tighter organelle packing at 5 uM measured after 24 hrs. It counts as functional, cell-based.
For data set [18], the system named is SW-620. The experiment in a line: Cell cycle arrest in human SW620 cells assessed as accumulation of cells at S-phase at 5 uM measured after 24 hrs by propidium iodide staining based flow cytometry (reference value: 16.38 to 16.91%). In kind it is functional.
Data set [19] concerns SW-620. The experiment in a line: Potency index, ratio of SAHA IC50 to test compound IC50 for cytotoxicity against human SW620 cells. In kind it is functional.

As a reminder, the IC50 is the concentration needed to halve the response being measured. Regarding `COc1ccc2c(c1)CC(=O)N2CCCCCCC(=O)NO`, the IC50 came to 0.025 µM against Histone deacetylase, 24.6 µM in data set [1], 6.44 µM in the data set on HCT-116 and 6.02 µM with SW-620 [2].
Take `O=C(/C=C/c1ccc(CN2C(=O)Cc3cc(F)ccc32)cc1)NO`: the IC50 on Histone deacetylase is 5.012 µM; in data set [1], above 100 µM; with HCT-116, 7.46 µM; in the data set with SW-620 [2], 14.2 µM.
Regarding `O=C(/C=C/c1ccc(CN2C(=O)Cc3ccccc32)cc1)NO`, the IC50 is 2.316 µM at Histone deacetylase, above 100 µM in data set [1], 5.72 µM with HCT-116 and 7.36 µM with SW-620 [2].
Take `O=C(CCCCCCN1C(=O)Cc2cc(F)ccc21)NO`: the IC50 was 0.047 µM against Histone deacetylase, 57.3 µM in data set [1], 3.95 µM in the data set on HCT-116 and 5.71 µM in the data set on SW-620 [2].
For `O=C(CCCCCCC(=O)Nc1ccccc1)NO` [VORINOSTAT], the result with SW-620 [3], with SW-620 [5], in the data set on SW-620 [6], in the data set with SW-620 [7], with SW-620 [8] and in the data set on SW-620 [9] was Active. Also, the outcome in the data set with SW-620 [10], in the data set on SW-620 [12], in the data set on SW-620 [13] and in the data set with SW-620 [17] was Active. The Activity was 1.53% in the data set on SW-620 [4]; 24.3% in the data set on SW-620 [11]; 41.58% in the data set with SW-620 [14]; 26.3% in the data set with SW-620 [15]; 37.58% with SW-620 [16]; 15.16% in the data set on SW-620 [18].
In the case of `O=C(/C=C/c1ccc(CN2C(=O)Cc3cc(Cl)ccc32)cc1)NO`, the IC50 against Histone deacetylase was found to be 0.737 µM; in data set [1] it was 66.4 µM; with HCT-116, 3.63 µM; in the data set on SW-620 [2] it was 7.08 µM.
For `O=C(CCCCCCN1C(=O)Cc2cc(Cl)ccc21)NO`, the IC50 was 0.007 µM on Histone deacetylase, 23.1 µM in [1], 5.67 µM in the data set with HCT-116 and 4.72 µM in the data set with SW-620 [2].
`O=C(CCCCCCN1C(=O)Cc2ccccc21)NO`: in the data set on SW-620 [19], the “Ratio IC50” value is around 2.5. The outcome in the data set on SW-620 [3], with SW-620 [5], with SW-620 [6], in the data set with SW-620 [7], in the data set on SW-620 [8] and in the data set on SW-620 [9] was Active. The result in the data set on SW-620 [10], with SW-620 [12], with SW-620 [13] and with SW-620 [17] was Active. The Activity in the data set with SW-620 [4] was 1.85%; with SW-620 [11], 28.9%; with SW-620 [14], 32.88%; in the data set on SW-620 [15] it was 23.4%; in the data set with SW-620 [16], 47.54%; in the data set on SW-620 [18] it was 15.26%. The IC50 on Histone deacetylase was found to be 0.015 µM; in [1], 17.6 µM; in the data set on HCT-116 it was 1.68 µM; with SW-620 [2], 1.81 µM.
With `O=C(NO)c1ccc(CN2C(=O)Cc3ccccc32)cc1`, the IC50 against Histone deacetylase is 0.477 µM; in data set [1], above 100 µM; with HCT-116, 7.22 µM; in the data set on SW-620 [2], 8.18 µM.
Take `O=C(/C=C/c1ccc(CN2C(=O)Cc3cc(Br)ccc32)cc1)NO`: the IC50 was determined as 0.698 µM against Histone deacetylase, 48.7 µM in data set [1], 3.19 µM with HCT-116 and 5.21 µM in the data set on SW-620 [2].
`COc1ccc2c(c1)CC(=O)N2Cc1ccc(C(=O)NO)cc1`: the IC50 on Histone deacetylase was 2.735 µM; in [1], 41.4 µM; in the data set on HCT-116 it was 3.62 µM; in the data set with SW-620 [2], 8.9 µM.
For `COc1ccc2c(c1)CC(=O)N2Cc1ccc(/C=C/C(=O)NO)cc1`, the IC50 was 1.043 µM against Histone deacetylase, above 100 µM in [1], 3.18 µM in the data set with HCT-116 and 10.2 µM with SW-620 [2].
`O=C(CCCCCCN1C(=O)Cc2cc(Br)ccc21)NO`: the IC50 at Histone deacetylase is below 0.001 µM; in [1], 30.1 µM; in the data set on HCT-116, 9.96 µM; in the data set on SW-620 [2], 12.3 µM.
As for `O=C(NO)c1ccc(CN2C(=O)Cc3cc(Br)ccc32)cc1`, the IC50 against Histone deacetylase stood at 2.739 µM; in [1], 21.4 µM; with HCT-116, 2.78 µM; in the data set on SW-620 [2] it was 5.51 µM.
Taken in the same sequence, the figures for `O=C(NO)c1ccc(CN2C(=O)Cc3cc(F)ccc32)cc1` were 0.477 µM, above 100 µM, 7.6 µM and 10.6 µM.
`COc1cccc2c1C(=O)c1c(O)c3c(c(O)c1C2=O)C[C@@](O)(C(=O)CO)C[C@@H]3O[C@H]1C[C@H](N)[C@H](O)[C@H](C)O1` [DOXORUBICIN HYDROCHLORIDE]: the IC50 amounted to 3.93 µM in [1], 0.19 µM with HCT-116 and 0.59 µM in the data set with SW-620 [2].
Turning to `O=C(NO)c1ccc(CN2C(=O)Cc3cc(Cl)ccc32)cc1`, the IC50 against Histone deacetylase was 0.491 µM; in [1], above 100 µM; in the data set with HCT-116, 3.5 µM; in the data set with SW-620 [2], 6.26 µM.
